Experimental data published in patent US4921953A, “Cephalosporin derivatives” (Taisho Pharmaceutical Co., Ltd., priority 1988, dated 1990).
≈ marks a conversion by molar mass, not a printed value. Counter-ions that a name gives are not always drawn. Like-named read-outs stand apart in the source and are kept apart here.

Key:
[1] = tested on: Entercococcus faecalis ATCC 8043; experiment: antibacterial activity, agar plate dilution method (MIC); type: cell-based; conditions: read-out: Minimum Inhibitory Concentration (MIC)
Method: (§1) The antibacterial activity against various bacteria was measured by the agar plate dilution method (inoculum size: 10^6 cells/ml), and the results are shown in the following Table 1.

Eschelichia coli A13 = experiment: as above; type: cell-based; conditions: read-out: Minimum Inhibitory Concentration (MIC)
Method: as §1

[2] = tested on: Eschelichia coli NIHJ JC-2; experiment: as above; type: cell-based; conditions: read-out: Minimum Inhibitory Concentration (MIC)
Method: as §1

[3] = tested on: Staphylococcus aureus 209P-JC; experiment: as above; type: cell-based; conditions: read-out: Minimum Inhibitory Concentration (MIC)
Method: as §1

[4] = tested on: Staphylococcus aureus K-1; experiment: as above; type: cell-based
Method: as §1

[5] = tested on: Staphylococcus epidermidis sp-al-1; experiment: as above; type: cell-based
Method: as §1

in vivo = experiment: in vivo; set-up: species or system male Japanese native strain white rabbits; conditions: blood, rabbit, oral, 20 mg/kg suspended in 5% gum arabic, bioassay (Bacillus luteus S1101)
Method: Three male Japanese native strain white rabbits weighing 2.50 to 3.15 kg for each group were administered orally with the test compounds, and the change of the concentration of the compound in blood was measured.
Dosage of the test compound: 20 mg/kg (suspended in 5% gum arabic).
Quantitative method: Bioassy method (test bacterium: Bacillus luteus S1101).

[6] = Staphylococcus aureus, K1, read-out: Minimum Inhibitory Concentration (MIC)
[7] = Staphylococcus epidermidis, SPAL1, read-out: Minimum Inhibitory Concentration (MIC)
[8] = Entercococcus faecalis ATCC 8043, inoculum size: 10^6 cells/ml
[9] = Eschelichia coli A13, inoculum size: 10^6 cells/ml
[10] = Eschelichia coli NIHJ JC-2, inoculum size: 10^6 cells/ml
[11] = Staphylococcus aureus 209P-JC, inoculum size: 10^6 cells/ml
[12] = K1, Staphylococcus aureus K-1, inoculum size: 10^6 cells/ml, read-out: Minimum Inhibitory Concentration (MIC)
[13] = SPAL1, Staphylococcus epidermidis sp-al-1, inoculum size: 10^6 cells/ml, read-out: Minimum Inhibitory Concentration (MIC)

SMILES | MIC [1] | MIC (Eschelichia coli A13) | MIC [2] | MIC ([3]; Staphylococcus aureus, 209P) | MIC [4, 6] | MIC [5, 7] | concentration at 4 h (in vivo; Four Hours after administration) | concentration at 1 h (in vivo; One Hour after administration) | concentration at 2 h (in vivo; Two Hours after administration) | MIC [1, 8] | MIC (Eschelichia coli A13; [9]) | MIC [2, 10] | MIC [3, 11] | MIC [4, 12] | MIC [5, 13]
N#CCSC1=C(C(=O)[O-])N2C(=O)[C@@H](NC(=O)/C(=N\O)c3csc(N)n3)[C@H]2SC1.[Na+] | 1.56 µg/mL | 1.56 µg/mL | 0.2 µg/mL | 0.2 µg/mL | 0.78 µg/mL | 0.78 µg/mL | 2500 ng/mL | 2500 ng/mL | 4000 ng/mL | – | – | – | – | – | –
Nc1nc(/C(=N/O)C(=O)N[C@@H]2C(=O)N3C(C(=O)O)=C(SCCF)CS[C@H]23)cs1 [B] | – | – | – | – | – | – | – | – | – | 25 µg/mL (≈ 55.9 µM) | 6.25 µg/mL (≈ 14 µM) | 0.39 µg/mL (≈ 0.872 µM) | 0.39 µg/mL (≈ 0.872 µM) | 0.78 µg/mL (≈ 1.74 µM) | 0.78 µg/mL (≈ 1.74 µM)
C=CCSC1=C(C(=O)O)N2C(=O)[C@@H](NC(=O)/C(=N\O)c3csc(N)n3)[C@H]2SC1 [C] | 12.5 µg/mL (≈ 28.3 µM) | 6.25 µg/mL (≈ 14.2 µM) | – | – | 6.25 µg/mL (≈ 14.2 µM) | – | – | – | – | – | – | 0.2 µg/mL (≈ 0.453 µM) | 0.2 µg/mL (≈ 0.453 µM) | – | 0.39 µg/mL (≈ 0.883 µM)
CC1=C(C(=O)O)N2C(=O)[C@@H](NC(=O)[C@H](N)c3ccccc3)[C@H]2SC1 [D, Cephalexin, reference compound] | 100 µg/mL (≈ 288 µM) | > 100 µg/mL | 6.25 µg/mL (≈ 18 µM) | 0.78 µg/mL (≈ 2.25 µM) | > 100 µg/mL | 1.56 µg/mL (≈ 4.49 µM) | – | – | – | – | – | – | – | – | –
C=CC1=C(C(=O)O)N2C(=O)[C@@H](NC(=O)/C(=N\OCC(=O)O)c3csc(N)n3)[C@H]2SC1 [E, Cefixime sodium salt, reference compound] | – | – | 0.39 µg/mL | 12.5 µg/mL | – | – | – | – | – | > 100 µg/mL | > 100 µg/mL | – | – | > 100 µg/mL | 50 µg/mL
